From PMC6362346, “Serendipita indica E5′NT modulates extracellular nucleotide levels in the plant apoplast and affects fungal colonization” (EMBO Reports, 2019)

Biological target: T1, SiE5′NT (Serendipita indica, UniProt G4T774)
T1 construct: gene PIIN_01005; untagged full-length with signal peptide and predicted GPI anchor, 35S promoter, expressed in Arabidopsis thaliana (line 303 1L3); detergent-solubilised membrane protein preparation
T1 sequence (G4T774 20-579): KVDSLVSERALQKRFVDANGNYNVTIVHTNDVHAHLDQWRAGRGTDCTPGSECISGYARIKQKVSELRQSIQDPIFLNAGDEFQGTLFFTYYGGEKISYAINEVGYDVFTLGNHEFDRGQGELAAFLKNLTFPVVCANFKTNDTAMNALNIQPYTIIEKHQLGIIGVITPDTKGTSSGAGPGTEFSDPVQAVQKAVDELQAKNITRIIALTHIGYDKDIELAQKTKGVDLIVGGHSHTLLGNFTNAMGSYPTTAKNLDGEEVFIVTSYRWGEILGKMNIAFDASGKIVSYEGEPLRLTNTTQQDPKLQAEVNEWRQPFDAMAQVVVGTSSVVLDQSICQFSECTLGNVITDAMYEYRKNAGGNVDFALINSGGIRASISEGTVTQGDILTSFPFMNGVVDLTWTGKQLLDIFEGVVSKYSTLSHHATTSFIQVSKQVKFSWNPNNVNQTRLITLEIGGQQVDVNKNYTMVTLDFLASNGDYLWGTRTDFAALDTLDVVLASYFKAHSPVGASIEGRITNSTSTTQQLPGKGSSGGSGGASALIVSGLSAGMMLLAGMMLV
Test: phosphate release (EnzChek phosphate assay), membrane protein preparation of transgenic A. thaliana versus mCherry control line
Format: biochemical
Details: 100 μM substrate, 10 mM Tris/MES, 2 mM MgCl2, 30 mM KCl, pH 6.5

Nc1ncnc2c1ncn2[C@@H]1O[C@H](COP(=O)(O)OP(=O)(O)OP(=O)(O)O)[C@@H](O)[C@H]1O [ATP]
phosphate release (EnzChek phosphate assay), membrane protein preparation of tra: production of a membrane‐localized enzyme capable of hydrolyzing ATP, ADP, and AMP

Nc1ncnc2c1ncn2[C@@H]1O[C@H](COP(=O)(O)O)[C@@H](O)[C@H]1O [AMP]
phosphate release (EnzChek phosphate assay), membrane protein preparation of tra: production of a membrane‐localized enzyme capable of hydrolyzing ATP, ADP, and AMP
